Experimental data: patent publication US20080193976A1 (priority 2005, published 2008)

System: CD4+T-cells
Assay type: cell-based, human

Substance | epitope classification | responders [%] | positive control response
ARGRIRNGALLRVYVPRS [Peptide 75-76] | major (or significant) epitope | 22.62 | –
RLVALYLAARLSWNQ [Peptide 15] | minor epitopes | 14.29 | –
SQDLDAIWRGFYIAG [Peptide 65] | minor epitopes | 14.29 | –
tetanus toxoid [reference compound] | – | – | robust positive control responses
